# Data from patent US11464854B2, “Methods and compositions relating to adjuvants” (Children's Medical Center Corporation, priority 2017, dated 2022).
# Columns and labels:
# [1] = Safety and reactogenicity monitoring in neonatal/infant rhesus macaques; type: in vivo, rhesus macaques (Macaca mulatta)
# Procedure: In vivo neonatal and infant rhesus macaque vaccination studies. Rhesus macaques (Indian origin Macaca mulatta) were obtained from the TNPRC specific pathogen-free breeding colony. Upon identification, pregnant dams were transferred to an indoor social group to allow for monitoring and delivery of infants. At birth, neonatal rhesus macaques (<24 hours of age) were enrolled into the longitudinal immunization study. Exclusion criteria were, a) maternal fever (≥40° C.) during infant exam on DOL0, b) birth weight<400 g, c) clinical signs of neonatal infection (e.g. infant temperature […]; nasal, ocular discharge; respiratory distress, cardiovascular instability), d) congenital defects (e.g. abnormal digits, omphalocele) and/or e) abnormal cling. Animals were group-housed in dam/infant pairs with a maximum of 4 pairs (8 animals) together. […] Standard physiological safety parameters, extrapolated from human infant clinical trials of PCV (28), included temperature and weight (normalized to Tulane National Primate Research Center reference standard for rhesus macaques), which were recorded at multiple time-points at observation/sample-acquisition, as well as local signs of reactogenicity such as leg circumference pre/post-immunization and photographic documentation of erythema (Table 4). […]
# [2] = rats
# human TLR8 = biological target: T1, human TLR8 (Homo sapiens, UniProt Q9NR97); assay: HEK293 NF-kB SEAP reporter assay, human TLR8; type: cell-based
# T1 construct: host or cells: HEK293 with NF-kB-responsive SEAP reporter
# T1 sequence (Q9NR97 27-1041): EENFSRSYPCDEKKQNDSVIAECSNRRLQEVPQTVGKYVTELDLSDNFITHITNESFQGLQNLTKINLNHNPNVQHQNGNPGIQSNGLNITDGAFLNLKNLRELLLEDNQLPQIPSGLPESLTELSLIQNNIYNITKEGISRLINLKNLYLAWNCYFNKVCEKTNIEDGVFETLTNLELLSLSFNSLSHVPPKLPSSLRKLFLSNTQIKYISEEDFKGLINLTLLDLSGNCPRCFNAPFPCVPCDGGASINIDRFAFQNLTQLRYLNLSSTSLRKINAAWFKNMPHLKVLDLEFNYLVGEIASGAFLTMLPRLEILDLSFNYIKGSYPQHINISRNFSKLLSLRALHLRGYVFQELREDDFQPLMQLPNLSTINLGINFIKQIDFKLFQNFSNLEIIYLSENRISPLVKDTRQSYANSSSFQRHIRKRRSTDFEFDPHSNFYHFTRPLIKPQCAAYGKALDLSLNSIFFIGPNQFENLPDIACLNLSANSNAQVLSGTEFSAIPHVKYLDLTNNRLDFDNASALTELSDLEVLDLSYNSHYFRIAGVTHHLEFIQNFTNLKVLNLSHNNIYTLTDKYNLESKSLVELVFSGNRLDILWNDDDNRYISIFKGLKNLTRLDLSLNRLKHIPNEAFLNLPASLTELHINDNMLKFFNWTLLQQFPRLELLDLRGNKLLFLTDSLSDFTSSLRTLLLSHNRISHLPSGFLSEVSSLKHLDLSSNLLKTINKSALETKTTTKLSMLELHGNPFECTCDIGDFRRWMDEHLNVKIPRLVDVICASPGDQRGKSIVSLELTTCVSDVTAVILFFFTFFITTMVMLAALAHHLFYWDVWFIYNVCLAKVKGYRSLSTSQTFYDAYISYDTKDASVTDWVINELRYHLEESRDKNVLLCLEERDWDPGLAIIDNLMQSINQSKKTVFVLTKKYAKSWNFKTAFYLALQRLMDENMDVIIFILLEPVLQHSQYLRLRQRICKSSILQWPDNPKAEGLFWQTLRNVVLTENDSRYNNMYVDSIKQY
# Procedure: Human embryonic kidney (HEK)293 cells expressing human TLR7 or TLR8 with an NF-κB-responsive secreted embryonic alkaline phosphatase (SEAP) reporter gene were obtained from Novus Biologicals (Littleton, Colo.) and Invivogen (San Diego, Calif.), respectively. Cells were maintained in DMEM with 10% HI-FBS and selection antibiotics per the manufacturer's instructions. Cells were plated at 5×10^5 cells/96-well and stimulated with indicated agonist(s) for 24 h. Supernatants were harvested and analyzed for NF-κB/SEAP activation using the QuantiBlue™ kit (Invivogen). Values are expressed as fold change in OD650 over vehicle-only treated samples.
SMILES,"animals with transient and mild maculopapular rash ([1]; 3M-052- or (PCV13+3M-052)-treated infant animals, co-housed, second enrollment season)","systemic cytokine induction (plasma) ([1]; with or without PCV13, first 63 days of life or 48 hours post (DOL30) a single dose)","3M-052 in serum ([2]; 0.1 mg/kg, up to 24 hours post-dose)","serum 3M-052 peak ([2]; 1 mg/kg, 4 hour peak)",TLR7 vs. TLR8 selectivity (human TLR8; HEK293 assay),"potency for hTLR8 (human TLR8; among six IMQ and OA compounds, SEAP fold change)"
"CCCCCCCCCCCCCCCCCC(=O)NCCCCOn1c(CCCC)nc2c(N)nc3ccccc3c21 [3M-052, N-[4-[(4-amino-2-butyl-1H-imidazo[4,5-c]quinolin-1-yl)oxy]butyl]octadecanamide]",3 of the total of 16,did not induce systemic cytokine induction,not detectable,~50 pmol/mL,–,–
CCCCc1nc2c(N)nc3ccccc3c2n1CCO [CRX-649],–,–,–,–,preference for TLR8,greatest potency
